Source: paper PMC4822341 (Cell Discovery, 2015)

Assays:
[1] = Bone density (μCT) and biomechanics testing of femurs; assay type: in vivo, DBA/1 mice; details: 2 weeks; for cortical bone thickness of femurs: μCT
Description: Femur bones were collected and scanned by μCT (Skyscan 1172 uCT) for quantification of trabecular and cortical bone parameters. The thresholds for μCT quantification of trabecular and cortical bone parameters were set at 80–100 and 100–110, respectively. μCT analyses of cortical bone parameters were performed on 100-μCT slices (1 mm total) from the middle shaft of femurs; trabecular parameters were assessed in 100-μCT slices (1 mm total) immediately below the distal growth plate of the femur. Following uCT scans, the femurs were individually tested on a TestResources 570 Force Transducer. Bones were thawed in PBS before being tested, to ensure no brittleness was due to freezing. […] Data points were collected at a frequency of 50 Hz and a deflection rate of 0.005 mm s^–1.

[2] = Insulin-tolerance test and plasma insulin level; details: 7 days
Description: DBA/1 mice (Taconic) were weighted just before the experiment. After 4 h fasting, mice were i.p. injected with 0.75 U kg^–1 of insulin (Huamlin R). Blood samples were taken from the tail at time 0 (before insulin injection), 15, 30, 45, 60, 90 and 120 min after injection. Plasma glucose levels were measured using an AlphaTrak glucose meter. All data were plotted as percent of glucose level at time 0. Endogenous insulin levels were measured using the Ultra Sensitive Mouse Insulin ELISA kit (Crystal Chem, Downers Groove, IL, USA).

RAW264.7 cells = experiment: Gene expression (microarray and quantitative PCR) in LPS-stimulated RAW264.7 cells; assay type: cell-based, mouse; details: RAW264.7, LPS, steroid 100 nM
Description: Mouse macrophage RAW264.7 cells were grown in 6-well plates to reach 80% confluence. The cells were pretreated with different steroids at 100 nM 1 h before overnight induction of inflammation by 1 μg ml^–1 LPS. Total RNA was isolated using a Qiagen mini RNA extraction kit (Valencia, CA, USA). Complementary DNA was synthesized from total RNA with an Invitrogen Superscript cDNA synthesis kit (Carlsbad, CA, USA). Target genes were quantified with a Power SYBR Green Real-Time PCR kit (Carlsbad, CA, USA) (ABI) in a StepOnePlus real-time PCR instrument (Applied Biosystems, Carlsbad, CA, USA). In every case, GAPDH (glyceraldehyde-3-phosphate dehydrogenase) was used as an internal control and data were analyzed by the ΔΔCt method. The specificity of target primers was tested both in a dissociation (melting) curve (Supplementary Figure S4) and against a water control. Primer sequence information is included in Supplementary Figure S4.
RAW264.7 cells were treated with designated steroids at 100 nM 1 h before overnight LPS stimulation of inflammation. Each treatment was duplicated. The following day, RNA samples were isolated using a Qiagen mini RNA extraction kit and applied to the Agilent Whole Mouse Genome 8x60K gene expression platform. Data were analyzed by the limma package in R program. Heat maps were generated by the HeatMap 2 package. Pathway analysis was done via DAVID Bioinformatics Resources 6.7 (NIAID) and Venn diagrams were generated by BioVenn.

PR = target: T1, PR (Homo sapiens, UniProt P06401); experiment: PR reporter assay (off-target activity); assay type: cell-based; details: steroid 1 μM; percent of 1 μM progesterone
T1 construct: expressed in transfected cells; host or cells: AD293
T1 sequence (P06401 1-933): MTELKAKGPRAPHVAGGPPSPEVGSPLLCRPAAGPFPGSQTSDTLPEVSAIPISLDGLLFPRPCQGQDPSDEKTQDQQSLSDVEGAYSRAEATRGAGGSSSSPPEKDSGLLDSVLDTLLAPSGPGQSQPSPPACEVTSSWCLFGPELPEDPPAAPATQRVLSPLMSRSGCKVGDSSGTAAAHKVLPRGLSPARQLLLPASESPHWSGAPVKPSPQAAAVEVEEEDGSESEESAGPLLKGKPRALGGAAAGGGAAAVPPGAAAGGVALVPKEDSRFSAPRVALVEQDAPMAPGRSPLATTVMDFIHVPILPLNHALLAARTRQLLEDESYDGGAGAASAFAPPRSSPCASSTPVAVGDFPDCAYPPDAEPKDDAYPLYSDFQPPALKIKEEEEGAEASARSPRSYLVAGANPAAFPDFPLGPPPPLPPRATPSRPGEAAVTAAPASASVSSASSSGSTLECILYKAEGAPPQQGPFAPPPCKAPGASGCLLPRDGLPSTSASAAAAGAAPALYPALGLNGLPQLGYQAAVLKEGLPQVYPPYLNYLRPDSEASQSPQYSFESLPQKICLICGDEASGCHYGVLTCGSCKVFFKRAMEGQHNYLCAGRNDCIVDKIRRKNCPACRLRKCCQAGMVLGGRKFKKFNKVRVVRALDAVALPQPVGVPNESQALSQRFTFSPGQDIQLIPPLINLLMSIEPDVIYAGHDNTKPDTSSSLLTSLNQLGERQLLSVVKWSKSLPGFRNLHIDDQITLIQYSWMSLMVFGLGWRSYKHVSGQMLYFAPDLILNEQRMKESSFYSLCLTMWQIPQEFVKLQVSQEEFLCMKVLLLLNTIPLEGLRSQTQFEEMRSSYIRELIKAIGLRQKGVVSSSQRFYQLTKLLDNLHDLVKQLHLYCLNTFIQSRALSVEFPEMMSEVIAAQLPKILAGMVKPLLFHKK
Description: Similar to previous reports, for induction 100 ng pHHLuc (MMTV-Luc) plasmid, 0.1 ng pRShGR together with 5 ng phRGtkRenilla were transfected by X-tremeGENE 9 (Roche) into AD293 cells per well in 24-well plate. For transrepression, 10 ng AP-1-Luc or 10ng pNF-κB-luc, 100 ng pRShGR and 5 ng phRGtkRenilla were transfected into AD293 cells per well. We used the same transfection protocol for the MR and PR assays, except of the use of 0.1 ng MR or PR plasmid to substitute GR. One day after transfection, for induction, cells were directly treated by steroids for 16 h; for repression, cells were treated with either PMA at 0.6 ng ml^–1 (for AP-1 reporter) or TNFα at 2 ng ml^–1 (for NF-κB reporter), together with various steroids. Cells were collected by addition of 1× Passive Lysis Buffer (Promega, Madison, WI, USA), and luciferase activity was assayed by the Dual-Glo Luciferase system (Promega). Data were plotted as firefly luciferase activity normalized to Renilla luciferase activity in Relative Luciferase Units.

CON(C)C(=O)C1(OC(=O)c2ccco2)C(C)CC2C3CC(F)C4=Cc5c(cnn5-c5ccccc5)CC4(C)C3(F)C(O)CC21C (stereo not drawn) [VSGC12]
bone strength (stiffness) of femurs ([1]; 0.0625 mg kg^-1 daily): no longer caused damage to bone strength | cortical bone thickness of femurs ([1]; 0.0625 mg kg^-1 daily): did not cause a significant decrease compared with vehicle treatment | bone strength (stiffness) of femurs ([1]; 0.25 mg kg^-1 daily): no longer caused damage to bone strength | cortical bone thickness of femurs ([1]; 0.25 mg kg^-1 daily): only caused a mild decrease | insulin resistance in insulin-tolerance test ([2]; 0.0625 mg kg^-1 daily): no longer induced insulin resistance | insulin resistance in insulin-tolerance test ([2]; 0.25 mg kg^-1 daily): still caused insulin resistance, the resistance was much less severe than for FF | inhibition activity of pro-inflammatory cytokines (microarray, normalized to DEX) (RAW264.7 cells): much stronger inhibition activity than DEX | repression activity on pro-inflammatory cytokines by quantitative PCR (RAW264.7 cells): much higher repression activity on IL-1β, IL-6 and IL-33 than FF and DEX | PR activity (PR): higher activity than VSG22, but a lower activity than MF, FF and FP
